Source: the NIST ThermoML archive (doi:10.1016/j.tca.2016.11.011)
Values joined by “and” are separate entries in the source; they are usually repeats but may differ in a detail not shown here. Equal values may be shown once. Numbers after ± are expanded uncertainties.

Details: DSC

Compound | Glass transition temperature
COC(=O)C1=C(C)NC(C)=C(C(=O)OC)C1c1ccccc1[N+](=O)[O-] | 44.5 ± 1 °C and 42.2 ± 1 °C
O[C@@H]1[C@@H](O)[C@@H]2OC[C@@H](O2)[C@H]1O [1,6-anhydro-β-D-glucopyranose] | -24.7 ± 1 °C and -26.5 ± 1 °C
CC(=O)Nc1ccc(O)cc1 [N-acetyl-p-aminophenol] | 24 ± 1 °C and 21.7 ± 1 °C
